Test results reported in US20080020077A1, “Association Of Vegetal Extracts Based On Gooseberries, Black Orchids And Black Tulips And Topical Composition Comprising The Association Of Said Vegetal Extracts” (priority 2004, published 2008).

Test system: collagen
Experiment: Collagen content of human fibroblasts (hydroxyproline by reverse-phase HPLC)
Type: cell-based
Conditions: positive reference, versus control
Experimental: For this study, the fibroblasts were cultured in the same way as in paragraph 1.4.1. After the incubation period, the fibroblasts were recovered by centrifugation. The pellets were digested with […] (1 mg/cell pellet) in […] acetic acid for 24 hours at 4° C. After centrifugation at 10 000 g, the collagens were precipitated with 1 M sodium chloride (NaCl), and the precipitate was resuspended and then dialyzed. The primary amino acids were derivatized with o-phthaldehyde (OPA) acid, thus eliminating their interference. Hydroxyproline and proline were then derivatized with NBD-Cl by coupling the amino groups to NBD-CL. The NBD-Hyp was separated and identified by reverse-phase HPLC. […] The mobile phase is pre-filtered and then degassed before use. • The solutions are prepared in the following way: […] The standard curve is prepared from a solution of hydroxyproline at 50 mg/l. Successive dilutions make it possible to obtain solutions ranging from 0.5 to 40 mg/l. The derivatization and the establishment of the standard curve are carried out using 10 μl of a standard solution at various concentrations, mixed with 10 μl of the buffer. After the addition of 5 μl of OPA and agitation, the tubes are kept at ambient temperature for 5 min and then 10 μl of the NBD-Cl solution are added. […] The tubes are then removed and the orange coloration makes it possible to verify the derivatization. […]

## O=C1O[C@H]([C@@H](O)CO)C(O)=C1O [Vit C, vitamin C]
  % incorporation: +61%
